Experimental data: PubChem BioAssay (NCI)
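Five compound concentrations were applied to cells in 96-well plates for 48 hours; endpoints were derived by simple linear interpolation of the resulting dose-response curve. GI50 = concentration required for 50% inhibition of growth. Definition used: TGI = concentration required for complete inhibition of growth.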

Tests used:
Assay in all cases: DTP human tumour cell line panel, 48 h
[1] = system: 786-0 renal
[2] = system: A498 renal
[3] = system: A549 NSCLC
[4] = system: ACHN renal
[5] = system: BT-549 breast
[6] = system: CAKI-1 renal
[7] = system: CCRF-CEM leukemia
[8] = system: COLO 205 colon
[9] = system: DU-145 prostate
[10] = system: EKVX NSCLC
[11] = system: HCC-2998 colon
[12] = system: HCT-116 colon
[13] = system: HCT-15 colon
[14] = system: HL-60(TB) leukemia
[15] = system: HOP-62 NSCLC
[16] = system: HOP-92 NSCLC
[17] = system: HT29 colon
[18] = system: IGROV1 ovarian
[19] = system: KM12 colon
[20] = system: LOX IMVI melanoma
[21] = system: M14 melanoma
[22] = system: MALME-3M melanoma
[23] = system: MCF7 breast
[24] = system: MDA-MB-231 breast
[25] = system: MDA-MB-435
[26] = system: MOLT-4 leukemia
[27] = system: NCI-H226 lung
[28] = system: NCI-H23 lung
[29] = system: NCI-H460 lung
[30] = system: NCI-H522 lung
[31] = system: NCI/ADR-RES ovarian
[32] = system: OVCAR-3 ovarian
[33] = system: OVCAR-4 ovarian
[34] = system: OVCAR-5 ovarian
[35] = system: OVCAR-8 ovarian
[36] = system: PC-3 prostate
[37] = system: RPMI-8226 leukemia
[38] = system: RXF 393 renal
[39] = system: SF-268 CNS
[40] = system: SF-295 CNS
[41] = system: SF-539 CNS
[42] = system: SK-MEL-2 melanoma
[43] = system: SK-MEL-28 melanoma
[44] = system: SK-MEL-5 melanoma
[45] = system: SK-OV-3 ovarian
[46] = system: SN12C renal
[47] = system: SNB-19 CNS
[48] = system: SNB-75 CNS
[49] = system: SR leukemia
[50] = system: SW-620 colon
[51] = system: TK-10 renal
[52] = system: U251 CNS
[53] = system: UACC-257 melanoma
[54] = system: UACC-62 melanoma
[55] = system: UO-31 renal
[56] = system: HS 578T breast
[57] = system: K-562 leukemia
[58] = system: T-47D breast

O=C(CCN1CCCC1)Nc1ccc2c(NCCc3ccccc3)c3ccccc3nc2c1
GI50 [1]: 819 nM | TGI [1]: 2200 nM | GI50 [2]: 422 nM | TGI [2]: 1800 nM | GI50 [3]: 334 nM | TGI [3]: 1700 nM | GI50 [4]: 510 nM | TGI [4]: 2020 nM | GI50 [5]: 1190 nM | TGI [5]: 2660 nM | GI50 [6]: 1500 nM | TGI [6]: 5680 nM | GI50 [7]: 311 nM | TGI [7]: 1770 nM | GI50 [8]: 297 nM | TGI [8]: 1190 nM | GI50 [9]: 367 nM | TGI [9]: 1360 nM | GI50 [10]: 463 nM | TGI [10]: 2160 nM | GI50 [11]: 510 nM | TGI [11]: 1980 nM | GI50 [12]: 354 nM | TGI [12]: 1380 nM | GI50 [13]: 1730 nM | TGI [13]: 4850 nM | GI50 [14]: 389 nM | TGI [14]: 1670 nM | GI50 [15]: 389 nM | TGI [15]: 1760 nM | GI50 [16]: 332 nM | TGI [16]: 1510 nM | GI50 [17]: 368 nM | TGI [17]: 1750 nM | GI50 [18]: 366 nM | TGI [18]: 1630 nM | GI50 [19]: 466 nM | TGI [19]: 1800 nM | GI50 [20]: 305 nM | TGI [20]: 1220 nM | GI50 [21]: 500 nM | TGI [21]: 1810 nM | GI50 [22]: 384 nM | TGI [22]: 1450 nM | GI50 [23]: 305 nM | TGI [23]: 1140 nM | GI50 [24]: 452 nM | TGI [24]: 1820 nM | GI50 [25]: 416 nM | TGI [25]: 1520 nM | GI50 [26]: 296 nM | TGI [26]: 1560 nM | GI50 [27]: 374 nM | TGI [27]: 1950 nM | GI50 [28]: 374 nM | TGI [28]: 1390 nM | GI50 [29]: 296 nM | TGI [29]: 1050 nM | GI50 [30]: 308 nM | TGI [30]: 1270 nM | GI50 [31]: 12000 nM | TGI [31]: > 62900 nM | GI50 [32]: 454 nM | TGI [32]: 1730 nM | GI50 [33]: 326 nM | TGI [33]: 1190 nM | GI50 [34]: 506 nM | TGI [34]: 2130 nM | GI50 [35]: 532 nM | TGI [35]: 2720 nM | GI50 [36]: 406 nM | TGI [36]: 1550 nM | GI50 [37]: 320 nM | TGI [37]: 1150 nM | GI50 [38]: 510 nM | TGI [38]: 1750 nM | GI50 [39]: 481 nM | TGI [39]: 1910 nM | GI50 [40]: 381 nM | TGI [40]: 1530 nM | GI50 [41]: 435 nM | TGI [41]: 1550 nM | GI50 [42]: 463 nM | TGI [42]: 1630 nM | GI50 [43]: 599 nM | TGI [43]: 1870 nM | GI50 [44]: 1270 nM | TGI [44]: 2550 nM | GI50 [45]: 422 nM | TGI [45]: 2070 nM | GI50 [46]: 358 nM | TGI [46]: 1450 nM | GI50 [47]: 385 nM | TGI [47]: 1610 nM | GI50 [48]: 453 nM | TGI [48]: 1700 nM | GI50 [49]: 171 nM | TGI [49]: 1560 nM | GI50 [50]: 300 nM | TGI [50]: 1360 nM | GI50 [51]: 1060 nM | TGI [51]: 2960 nM | GI50 [52]: 329 nM | TGI [52]: 1550 nM | GI50 [53]: 1020 nM | TGI [53]: 2710 nM | GI50 [54]: 316 nM | TGI [54]: 1130 nM | GI50 [55]: 1490 nM | TGI [55]: 3690 nM

Cc1cc(NCc2cc(Nc3ccnc4cc(Cl)ccc34)ccc2F)nc(N2CCSCC2)n1
GI50 [1]: 1600 nM | TGI [1]: 3130 nM | GI50 [2]: 2180 nM | TGI [2]: 10400 nM | GI50 [3]: 2920 nM | TGI [3]: 21800 nM | GI50 [4]: 1700 nM | TGI [4]: 3530 nM | GI50 [6]: 1510 nM | TGI [6]: 3190 nM | GI50 [7]: 473 nM | TGI [7]: > 100000 nM | GI50 [9]: 3310 nM | TGI [9]: 15700 nM | GI50 [10]: 2800 nM | TGI [10]: 83900 nM | GI50 [11]: 1960 nM | TGI [11]: 4040 nM | GI50 [12]: 1180 nM | TGI [12]: 2460 nM | GI50 [13]: 1540 nM | TGI [13]: 3540 nM | GI50 [15]: 1890 nM | TGI [15]: 5640 nM | GI50 [16]: 998 nM | TGI [16]: 2320 nM | GI50 [56]: 1770 nM | TGI [56]: 4980 nM | GI50 [17]: 1770 nM | TGI [17]: 4370 nM | GI50 [18]: 1830 nM | TGI [18]: 4420 nM | GI50 [57]: 906 nM | TGI [57]: 3350 nM | GI50 [20]: 1470 nM | TGI [20]: 2790 nM | GI50 [23]: 1640 nM | TGI [23]: 4180 nM | GI50 [24]: 1640 nM | TGI [24]: 3630 nM | GI50 [26]: 2120 nM | TGI [26]: 7070 nM | GI50 [27]: 2710 nM | TGI [27]: 12100 nM | GI50 [28]: 1780 nM | TGI [28]: 5240 nM | GI50 [30]: 1960 nM | TGI [30]: 4490 nM | GI50 [31]: 1550 nM | TGI [31]: 4020 nM | GI50 [32]: 1590 nM | TGI [32]: 2930 nM | GI50 [33]: 1820 nM | TGI [33]: 5510 nM | GI50 [34]: 2210 nM | TGI [34]: 8250 nM | GI50 [35]: 2540 nM | TGI [35]: 9230 nM | GI50 [36]: 1500 nM | TGI [36]: 4350 nM | GI50 [37]: 1420 nM | TGI [37]: 3960 nM | GI50 [38]: 1520 nM | TGI [38]: 3350 nM | GI50 [39]: 1900 nM | TGI [39]: 5270 nM | GI50 [40]: 1310 nM | TGI [40]: 2760 nM | GI50 [41]: 1790 nM | TGI [41]: 3350 nM | GI50 [42]: 2150 nM | TGI [42]: 4710 nM | GI50 [44]: 1530 nM | TGI [44]: 2940 nM | GI50 [45]: 1820 nM | TGI [45]: 3640 nM | GI50 [47]: 4230 nM | TGI [47]: 60700 nM | GI50 [48]: 1320 nM | TGI [48]: 2900 nM | GI50 [58]: 1970 nM | TGI [58]: 4710 nM | GI50 [51]: 1920 nM | TGI [51]: 4680 nM | GI50 [52]: 1760 nM | TGI [52]: 3280 nM | GI50 [55]: 1380 nM | TGI [55]: 2870 nM

N=C(N)c1ccc(-c2ccc(-c3cncc4ccccc34)s2)s1
GI50 [9]: 1550 nM | TGI [9]: 3000 nM | GI50 [56]: 2220 nM | TGI [56]: 4750 nM | GI50 [35]: 1830 nM | TGI [35]: 4400 nM | GI50 [53]: 2470 nM | TGI [53]: 5230 nM
